Test results from patent US11925629B2, “Heterocyclic inhibitors of ERK1 and ERK2 and their use in the treatment of cancer” (Asana Biosciences, LLC, priority 2015, dated 2024).

How the values were obtained:
Assay type in all cases: cell-based, human
[1] = tested on: HCT116 (colorectal carcinoma, K Ras G13D) cells; experiment: Cell proliferation (Alamar Blue) assay, HCT116; details: Homo sapiens, HCT-116, HCT116 cells
Outline: (§1)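 A 72 h exposure to compound (3-fold series, typically 0.0005 to 10 uM) of cells seeded at 5000/well precedes a 1-3 h Alamar Blue (1×) incubation. Growth inhibition is quantified by fluorescence and fitted to give IC50.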

[2] = tested on: HT-29 (colorectal carcinoma, B-RafV600E) cells; experiment: Cell proliferation (Alamar Blue) assay, HT-29; details: Homo sapiens, HT-29, HT29 cells
Outline: as §1

[3] = tested on: phosphorylation of RSK1(S380) (the downstream target of ERK1/2); experiment: Phospho-RSK1(S380) ELISA assay in HT-29 cells; details: Homo sapiens, HT-29, HT29 cells, phospho-RSK1(S380); read-out: Mechanistic Cell Assay RSK1 Phos HT29 IC50
Outline: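 HT-29 colorectal carcinoma cells (B-RafV600E), plated overnight at 37° C./5% CO2, were treated with compound dilutions for 2 h. Lysates were analysed by phospho-RSK1(Ser380) sandwich ELISA with absorbance at 450 nm. IC50 came from a sigmoidal variable-slope dose-response fit.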

SMILES	IC50 [1]	IC50 [2]	IC50 [3]
O=C(NC(CO)c1cccc(Cl)c1)c1cn(-c2ccnc(Nc3ccc4c(c3)CCO4)c2)cn1 (stereo not drawn) [Cmpd 163, N-(1-(3-chloro-phenyl)-2-hydroxy-ethyl)-1-(2-((2,3-dihydro-benzofuran-5-yl)amino)pyridin-4-yl)-1H-imidazole-4-carboxamide]	> 2500 nM	500 to 2500 nM	100 to 250 nM
Cc1cnc(NC2CCOCC2)nc1-n1cnc(C(=O)N[C@H](CN)c2cccc(Cl)c2)c1 [Cmpd 225a]	≤ 100 nM	≤ 100 nM	≤ 100 nM
Cc1cnc(N[C@H]2CCOC2)nc1-n1cnc(C(=O)N[C@H](CO)c2cccc(Cl)c2)c1 [Compound 192, N—((S)-1-(3-Chlorophenyl)-2-hydroxyethyl)-1-(5-methyl-2-(((S)-tetrahydrofuran-3-yl)amino)pyrimidin-4-yl)-1H-imidazole-4-carboxamide]	> 2500 nM	250 to 500 nM	250 to 500 nM
Cc1cnc(NC2CCOCC2)nc1-n1cnc(C(=O)NC(CO)c2cccc(Cl)c2)c1 (stereo not drawn) [Compound 201, N-(1-(3-chlorophenyl)-2-hydroxyethyl)-1-(5-methyl-2-((tetrahydro-2H-pyran-4-yl)amino)pyrimidin-4-yl)-1H-imidazole-4-carboxamide]	500 to 2500 nM	≤ 100 nM	100 to 250 nM
Cc1cnc(NC2CCOCC2)nc1-n1cnc(C(=O)N[C@H](CO)c2cccc(Cl)c2)c1 [Compound 211, (S)—N-(1-(3-chlorophenyl)-2-hydroxyethyl)-1-(5-methyl-2-((tetrahydro-2H-pyran-4-yl)amino)pyrimidin-4-yl)-1H-imidazole-4-carboxamide]	100 to 250 nM	≤ 100 nM	≤ 100 nM
O=C(Nc1cnn(-c2ccnc(Nc3ccccc3)n2)c1)N[C@H](CO)c1cccc(Cl)c1 [Example 12, (S)-1-(1-(3-chlorophenyl)-2-hydroxy-ethyl)-3-(1-(2-(phenyl-amino)pyrimidin-4-yl)-1H-pyrazol-4-yl) urea]	> 2500 nM	> 2500 nM	> 2500 nM
CN(C(=O)Nc1cnn(-c2ccnc(NC3CC3)n2)c1)[C@H](CO)c1ccccc1 [Example 18, (S)-3-(1-(2-(cyclopropyl-amino)pyrimidin-4-yl)-1H-pyrazol-4-yl)-1-(2-hydroxy-1-phenylethyl)-1-methylurea]	> 2500 nM	> 2500 nM	> 2500 nM
O=C(Nc1cnn(-c2ccnc(Nc3ccc4c(c3)OCO4)n2)c1)N[C@H](CO)c1cccc(Cl)c1 [Example 21, (S)-1-(1-(2-(benzo[d][1,3]dioxol-5-ylamino)-pyrimidin-4-yl)-1H-pyrazol-4-yl)-3-(1-(3-chlorophenyl)-2-hydroxyethyl) urea]	> 2500 nM	> 2500 nM	> 2500 nM
Cc1cnc(Nc2cccnc2)nc1-n1cc(NC(=O)N[C@H](CO)c2cccc(Cl)c2)cn1 [Example 23, (S)-1-(1-(3-chlorophenyl)-2-hydroxy-ethyl)-3-(1-(5-methyl-2-(pyridin-3-yl-amino)pyrimidin-4-yl)-1H-pyrazol-4-yl)urea]	> 2500 nM	500 to 2500 nM	> 2500 nM
Cc1cnc(Nc2ccc(F)cc2Cl)nc1-n1ccc(C(=O)NC(CO)c2cccc(Cl)c2)c1 (stereo not drawn) [Example 31, 1-(2-((2-chloro-4-fluorophenyl)amino)-5-methyl-pyrimidin-4-yl)-N-(1-(3-chlorophenyl)-2-hydroxy-ethyl)-1H-pyrrole-3-carboxamide]	500 to 2500 nM	250 to 500 nM	500 to 2500 nM
Cc1cnc(Nc2ccc(F)cc2Cl)nc1-n1ccc(C(=O)NC(CO)c2ccccc2)c1 (stereo not drawn) [Example 32, 1-(2-((2-chloro-4-fluorophenyl)amino)-5-methyl-pyrimidin-4-yl)-N-(2-hydroxy-1-phenylethyl)-1H-pyrrole-3-carboxamide]	> 2500 nM	> 2500 nM	500 to 2500 nM
